{"source": "patent EP4516289A1", "about": "“ANTIVIRAL NASAL SPRAY COMPRISING FAVIPIRAVIR” (SPH Sine Pharmaceutical Laboratories Co., Ltd, priority 2023, dated 2025)", "key": {"[1]": {"test": "Solubility of micronized FPV in different organic solvents (visual inspection)", "assay_type": "physicochemical", "settings": "thermodynamic from solid", "source_text": "In order to check for a possible improvement of FPV solubility in an aqueous solvent, it was decided to follow the protocol of WO2017009480. As a first task it was necessary to find a suitable organic solvent for pre-dissolution of FPV prior to adding the pre-dissolved FPV to the buffered aqueous solvent. The results are depicted in Table 1 Table 1: Solubility of micronized FPV in different organic solvents"}, "[2]": {"test": "Solubility and storage stability of aqueous FPV formulations (RP-HPLC on day 0 and day 7)", "assay_type": "physicochemical", "settings": "for solubility: thermodynamic from solid; for highest starting concentration of dissolved FPV: HPLC day 0, calculated approx. 17 mg/ml", "method": "In order to determine the maximum solubility of FPV in water various samples of either raw or micronized FPV powder have been prepared. […] In this experimental set-up, the FPV starting concentration was adjusted to a calculated value of 5 mg/ml. After admixture of all ingredients the experimental samples contained 10 %v/v PEG 400, 2 %wt dexpanthenol, and either a citrate or a phosphate buffer, or a combination of both, adjusted to pH 5.5. The selected saponins were tested each in three concentrations, i.e. escin: 0.10, 0.25 and 0.50% w/v, and glycyrrhizin: 1.0, 2.5 and 5.0% w/v. Glycyrrhizin was applied in the form of dipotassium glycyrrhizinate in this and all other examples. For the quantification of FPV contents in the experimental sample formulations, an RP-HPLC method using a Zorbax Eclipse Plus C18 column from Agilent Technologies was applied and adapted for the present purpose. The results of the storage stability test of the various FPV containing samples are depicted in Table 2. Table 2: Storage stability of different aqueous formulations of 5 mg/ml FPV In an attempt to raise the starting concentration of FPV in a pharmaceutically acceptable aqueous solvent the PEG 400 / FPV stock solution was applied in an amount such as to increase the theoretical / calculated FPV concentration from 5 to about 10mg/ml, more precisely to 9.5mg/ml. After admixture of the predetermined portion of PEG 400 solvent comprising FPV to the aqueous buffer solution the resulting samples contained 10.5 %v/v PEG 400, and 2% dexpanthenol in phosphate buffer pH 5.5. The selected saponins were applied in the following concentrations: escin: 0.01 and 0.05 %w/v; glycyrrhizin: 1.0, 2.5 and 5.0 %w/v. The sample formulations were analyzed by HPLC on day 0 and day 7, the results being depicted in Table 3. Table 3: Storage stability of different aqueous formulations of 9.5 mg/ml FPV In a next step it was tried to even further increase the FPV concentration in the aqueous solvent system. The theoretical FPV starting concentration was adjusted to approximately 17 mg/ml, more precisely to 17.2 mg/ml (raw FPV) and 17.1 mg/ml (micronized FPV), using stock solutions comprising 85.45 mg/ml (raw) and 86.07 mg/ml (micronized) FPV in PEG 400. The final experimental samples contained […] and 2% dexpanthenol in phosphate buffer, pH 5.5, along with varying saponin concentrations: escin 0.10, 0.25 and 0.50 %w/v; glycyrrhizin: 1.0, 2.5 and 5.0 %w/v. The factual - as opposed to the calculated, theoretical - FPV concentrations were determined from the sample preparations by HPLC on day 0 and day 7. Table 4: Storage stability of different aqueous formulations of 17 mg/ml FPV In yet another experimental set-up a possible influence of the organic solvent PEG 400 on the solubility and stability of buffered aqueous sample preparations containing approximately 10 mg/ml FPV was investigated. PEG 400 was used at concentrations of 0, 2.5, 5.0, 7.5 and 10.0 %v/v. The samples were prepared in phosphate buffer, pH 5.5 with 2% dexpanthenol and including at least one of the saponins in the following concentrations: escin 0.01 and 0.05 %w/v; glycyrrhizin 1.0, 2.5 and 5.0 %w/v. […] The FPV contents in the sample preparations were analyzed by HPLC on day 0 and day 7, and the results are depicted in Table 5. In this experiment, only micronized FPV powder was used and was directly added to the aqueous formulations in an amount such as to yield a calculated (theoretical) concentration of 10 mg/ml. […]"}, "[3]": {"settings": "cited from earlier work"}}, "data": [{"smiles": "NC(=O)c1nc(F)cnc1O", "note": "[FPV, 6-fluoro-3-hydroxypyrazine-2-carboxamide]", "values": [{"measurement": "solubility", "setting": "[1]; organic solvent or mixture, solvent Glycerol, read-out: Solubility, Visual Inspection Conc.", "result": "< 33000", "unit": "µg/mL"}, {"measurement": "solubility", "setting": "[1]; organic solvent or mixture, solvent PEG 400, read-out: Solubility, Visual Inspection Conc.", "result": 90000, "unit": "µg/mL"}, {"measurement": "solubility", "setting": "[1]; organic solvent or mixture, solvent PG, read-out: Solubility, Visual Inspection Conc.", "result": "< 10000", "unit": "µg/mL"}, {"measurement": "solubility", "setting": "[1]; organic solvent or mixture, solvent PPG 400, read-out: Solubility, Visual Inspection Conc.", "result": 25000, "unit": "µg/mL"}, {"measurement": "solubility", "setting": "[1]; solvent AD (distilled water), read-out: Solubility, Visual Inspection Conc.", "result": 5000, "unit": "µg/mL"}, {"measurement": "solubility", "setting": "[2]; 25 °C, pure water, read-out: solubility in an aqueous solution", "result": "~4500", "unit": "µg/mL"}, {"measurement": "solubility", "setting": "[2]; aqueous buffer, stable pH 4 to 6, phosphate or citrate buffer system, read-out: solubility in an aqueous solution", "result": "> 10000", "unit": "µg/mL"}, {"measurement": "solubility", "setting": "[2]; aqueous solution without buffer, 25 °C, water, without buffer, regardless of the amount of FPV added, read-out: maximum solubility of FPV in an aqueous solution", "result": "< 5000", "unit": "µg/mL"}, {"measurement": "highest starting concentration of dissolved FPV", "setting": "[2]; micronized FPV in phosphate buffer without saponins and without dexpanthenol", "result": 11.7, "unit": "mg/mL"}, {"measurement": "highest starting concentration of dissolved FPV", "setting": "[2]; raw FPV in phosphate buffer pH 5.5 including 5 %w/v glycyrrhizin", "result": 11.5, "unit": "mg/mL"}, {"measurement": "solubility in water", "setting": "[3]", "result": "slightly soluble"}]}]}
